Drawing on ChEMBL document CHEMBL3826872, “Synthesis of benzimidazole based thiadiazole and carbohydrazide conjugates as glycogen synthase kinase-3β inhibitors with anti-depressant activity” (Bioorg Med Chem Lett, 2016), this text covers IC50, Time and Activity for 26 compounds.

Active and inactive are the calls of the source. No cut-off for these calls is given here.

One may read the IC50 as the concentration that inhibits the measured activity by half.

In test [1] the target is Glycogen synthase kinase-3 beta (Homo sapiens, UniProt P49841). As to the kind of experiment: Inhibition of recombinant human N-terminal His-tagged GSK-3beta expressed in Escherichia coli using glycogen synthase-2 as substrate and ATP measured after 30 mins by Kinase-Glo luminescent kinase assay. In general terms: Kinase-Glo measures the ATP left after a reaction by luminescence.

Test [2] concerns Mus musculus. As to the kind of experiment: Antidepressant activity in Swiss albino mouse assessed as duration of immobility at 50 mg/kg, po dosed 1 hr before test measured after 6 mins by tail suspension test (reference value: 183 sec).
Test [3] deals with Mus musculus. As to the kind of experiment: Antidepressant activity in Swiss albino mouse assessed as reduction in duration of immobility at 50 mg/kg, po dosed 1 hr before test measured after 6 mins by forced swim test relative to control. In kind it is functional, organism-based.

Glycogen synthase kinase-3 beta, sequence (P49841 whole entry): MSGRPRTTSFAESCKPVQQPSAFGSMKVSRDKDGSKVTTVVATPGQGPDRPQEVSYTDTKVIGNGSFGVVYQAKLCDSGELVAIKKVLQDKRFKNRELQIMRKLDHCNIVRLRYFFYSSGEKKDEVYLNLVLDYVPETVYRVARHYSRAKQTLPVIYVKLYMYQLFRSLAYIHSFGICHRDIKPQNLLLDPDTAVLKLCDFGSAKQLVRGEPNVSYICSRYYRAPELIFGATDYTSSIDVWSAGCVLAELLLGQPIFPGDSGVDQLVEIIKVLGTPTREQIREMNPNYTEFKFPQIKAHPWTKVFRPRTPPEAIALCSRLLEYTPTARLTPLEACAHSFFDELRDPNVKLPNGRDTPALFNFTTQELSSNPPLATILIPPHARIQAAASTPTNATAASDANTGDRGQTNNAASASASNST

In the case of `COc1ccc(Nc2nnc(Cn3c(C)nc4ccccc43)s2)cc1`, in test [1], the IC50 was 0.151 µM. As for `COc1ccc(CC(=O)NNC(=O)Cn2c(C)nc3ccccc32)cc1`, the IC50 in test [1] amounted to 0.379 µM. For `Cc1nc2ccccc2n1Cc1nnc(Nc2ccccc2Cl)s1`, the half-maximal inhibitory concentration (IC50) in test [1] was 0.122 µM.

Consider `Cc1nc2ccccc2n1CC(=O)NNC(=O)Cc1ccc([N+](=O)[O-])cc1`, for which the half-inhibitory concentration (IC50) in test [1] worked out at 0.205 µM.

In the case of `CNCCC(Oc1ccc(C(F)(F)F)cc1)c1ccccc1` (centres undefined) [FLUOXETINE], the Time in the test on Mus musculus [2] is listed as 153 s.

With `Cc1nc2ccccc2n1Cc1nnc(Nc2ccccc2F)s1`, the outcome in the test with Mus musculus [3] was Active. In test [1], the 50% inhibitory concentration (IC50) turned out to be 0.076 µM. Moreover, the Time with Mus musculus [2] was 120 s. As for `Cc1nc2ccccc2n1Cc1nnc(NC2CCCCC2)s1`, in test [1], the IC50 came out at 0.406 µM. As to `Cc1nc2ccccc2n1Cc1nnc(Nc2ccccc2)s1`, in test [1], the concentration for half-maximal inhibition (IC50) came to 0.157 µM. As for `Cc1nc2ccccc2n1Cc1nnc(Nc2ccc(Br)cc2)s1`, in test [1], the 50% inhibitory concentration (IC50) came to 0.173 µM. With `Cc1ccccc1CC(=O)NNC(=O)Cn1c(C)nc2ccccc21`, the half-inhibitory concentration (IC50) in test [1] turned out to be 0.092 µM. Moreover, the Time in the test on Mus musculus [2] came to 168 s. For the compound `Cc1nc2ccccc2n1CC(=O)NNC(=O)Cc1cccc2ccccc12`, the IC50 in test [1] came to 0.157 µM. Consider `Cc1nc2ccccc2n1CC(=O)NNC(=O)c1c[nH]c2ccccc12`, for which, in test [1], the 50% inhibitory concentration (IC50) amounted to 0.148 µM. On the same count and under the same terms, then `Cc1nc2ccccc2n1CC(=O)NNC(=O)c1ccc[nH]1`, with 0.124 µM. Same read-out and setting: the same measure for `Cc1nc2ccccc2n1CC(=O)NNC(=O)Cc1ccc(Cl)cc1`: 0.131 µM; for `Cc1nc2ccccc2n1CC(=O)NNC(=O)Cc1cc2ccccc2[nH]1`: 0.135 µM. Consider `CCOc1ccc(Nc2nnc(Cn3c(C)nc4ccccc43)s2)cc1`, for which the IC50 in test [1] was found to be 0.293 µM.

As for `Cc1nc2ccccc2n1CC(=O)NNC(=O)C(=O)c1c[nH]c2ccccc12`, in the test on Mus musculus [3], the outcome was Active. Also, the IC50 in test [1] was 0.072 µM. Besides, in the test with Mus musculus [2], the Time was 105 s. Taken in the same sequence, the figures for `Cc1nc2ccccc2n1CC(=O)NNC(=O)CCC(=O)c1ccc(Oc2ccccc2)cc1` were “Active”, 0.08 µM and 135 s. As to `Cc1nc2ccccc2n1Cc1nnc(Nc2ccccc2Br)s1`, in test [1], the IC50 was 0.19 µM. The same measure, in the same setting: the same measure for `Cc1nc2ccccc2n1Cc1nnc(Nc2ccc(F)cc2)s1`: 0.134 µM; for `CCCCNc1nnc(Cn2c(C)nc3ccccc32)s1`: 0.582 µM; for `COc1ccc(C(=O)CCC(=O)NNC(=O)Cn2c(C)nc3ccccc32)cc1`: 0.561 µM. On to `Cc1nc2ccccc2n1Cc1nnc(Nc2ccc([N+](=O)[O-])cc2)s1`, for which, in test [1], the half-inhibitory concentration (IC50) came to 0.107 µM. In addition, the Time in the test with Mus musculus [2] came to 174 s. As to `Cc1nc2ccccc2n1Cc1nnc(Nc2ccc(Cl)cc2)s1`, the half-inhibitory concentration (IC50) in test [1] worked out at 0.145 µM. In the case of `COc1ccccc1Nc1nnc(Cn2c(C)nc3ccccc32)s1`, the half-maximal inhibitory concentration (IC50) in test [1] amounted to 0.184 µM. Regarding `Cc1nc2ccccc2n1CC(=O)NNC(=O)Cc1ccccc1`, the IC50 in test [1] is 0.105 µM.
